The text below walks through data of ChEMBL document CHEMBL1150888, “Dragmacidins: new protein phosphatase inhibitors from a southern australian deep-water marine sponge, spongosorites sp” (1998).

One test has as its system Escherichia coli. The test is described as follows: Antibacterial activity against Escherichia coli. The class given is functional.
A further test relates to Candida albicans. The test is described as follows: Antifungal activity against Candida albicans. The class given is functional.
Test [1] in a line: Inhibition of PP1.
Test [2] is described as follows: Inhibition of PP2A.

Converted amounts (≈) assume the structure as drawn. The source made the active and inactive calls. The calls are words filed in the database; no cut-off is given here.

On to `CC(C1=CNC(N)N1)c1ccc(O)c2[nH]cc(-c3cnc(-c4c[nH]c5cc(Br)ccc45)c(=O)[nH]3)c12` (configuration not stated) [DRAGMACIDIN D], for which the MIC with Escherichia coli turned out to be 16 µg/mL (≈ 30.1 µM); against Candida albicans, 20 µg/mL (≈ 37.6 µM). Besides, the result in test [1] was Active.

Regarding `C[C@@H]1c2ccc(O)c3[nH]cc(c23)-c2[nH]c(=O)c(-c3c[nH]c4cc(Br)ccc34)nc2[C@@]12CNC(N)=N2` [DRAGMACIDIN E], the MIC turned out to be 22 µg/mL (≈ 41.5 µM) in the test on Escherichia coli and 36 µg/mL (≈ 67.9 µM) against Candida albicans. For the same compound, the outcome in test [2] and in test [1] was Active.
